Where two headings read alike, the source gives them in different places.
Columns and labels:
HSV-1 = assay: In vitro antiviral assay for HSV-1; format: cell-based, Herpes Simplex Virus 1
Experimental: (§1) The antiviral assays for HBV, (Doong et al., 1991, Proc. Natl. Acad. Sci. U.S.A. 88:8495-8499) HSV-1, (Bastow et al., 1983, Antimicrob. Agents Chemother. 23: 914-917) HSV-2, (Bastow et al., 1983, Antimicrob. Agents Chemother. 23:914-917) EBV, (Yao et al., 1993, Antimicrob. Agents Chemother. 37:1420-1425), CMV (Andreoni et al., 2002, J. Med. Virol. 67:33-40) and HIV (Mellors et al., 1992, Mol. Pharmacol. 41: 446-451) were performed according to the previously reported procedures. Anti-HCV activities were tested in Huh-Luc/neo cell line. Cells were seeded into 48-well plates and grown until confluent. Different concentrations of drugs were added into media (DMEM, 10% dFBS) and incubated for 3 days. At the end of 3-day treatment, medium were removed and 50 μl of Passive lysis buffer (Promega) were added. Cell lysate was shaken at room temperature for 15 min. 30 μl/well of cell lysate was transferred to another 96-well plate, 100 μl/well of luciferase activity assay substrate was added into plate and read by a luminometer (Amersham) immediately.

HSV-2 = assay: In vitro antiviral assay for HSV-2; format: cell-based, Herpes Simplex Virus 2
Experimental: as §1

HBV = assay: In vitro antiviral assay for HBV (Table 1); format: cell-based, Hepatitis B virus; conditions: Hepatitis B virus, read-out: Antiviral Activities (EC50, μM) HBV
Experimental: as §1

HCV = assay: Anti-HCV activity in Huh-Luc/neo cell line, luciferase activity after 3-day treatment; format: cell-based, Hepatitis C virus; conditions: Hepatitis C virus, 72 h; for EC50: read-out: Antiviral Activities (EC50, μM) HCV
Experimental: as §1

EBV = assay: In vitro antiviral assay for EBV; format: cell-based, Epstein-Barr Virus; conditions: human gammaherpesvirus 4, read-out: Antiviral Activities (EC50, μM) EBV
Experimental: as §1

HIV = assay: In vitro antiviral assay for HIV; format: cell-based, human immunodeficiency virus; conditions: Human immunodeficiency virus 1, read-out: Antiviral Activities (EC50, μM) HIV, in vitro; (T) after a value means toxic
Experimental: as §1

[1] = Cell cytotoxicity assay on MT-2 cells; format: cell-based; conditions: human, read-out: Cytotoxity (ID50, μM) MT-2
Experimental: (§2) Cytotoxicities of test compounds on MT-2 (Mellors et al., 1992 Mol. Pharmacol. 41:446-451) and CEM (Grove et al., 1995, Cancer Res. 55:3008-3011) cells were determined according to the previously reported procedures. Hepg2 cells were seeded at a density of 10^4 cells/ml/well in 24-well plates and cultured in MEME supplemented with 10% FBS at 37° C. and 5% CO2. Each test compound at different concentrations was added on the second day of the culture and the cells were incubated for another 3 days. At the end of the incubation period, the medium was removed and 0.5 ml of 0.5% methylene blue in 50% ethanol (v/v) was added to each well and set at room temperature for 30-60 minutes. The methylene blue was removed; the plates were washed with water and allowed to air dry. Once dry, 1% sarcosyl was added to dissolve the stained cell layer. The absorbance at 595 nm was measured with a microplate reader (Molecular Devices Corp. Sunnyvale, Calif.). The cytotoxicity to CEM cell was calculated as described previously (Grove et al., 1995, Cancer Res. 55 (14): 3008-3011).

[2] = Cell cytotoxicity assay on CEM cells; format: cell-based; conditions: human, read-out: Cytotoxity (ID50, μM) CEM
Experimental: as §2

[3] = Huh-Luc/neo cells, 3 days, read-out: HCV percent of inhibition
[4] = Human alphaherpesvirus 1, read-out: Antiviral Activities (EC50, μM) HSV-1
[5] = Human alphaherpesvirus 2, read-out: Antiviral Activities (EC50, μM) HSV-2
[6] = Huh-Luc/neo cells, 3 days, given as a bound only

## Nc1nc2c(ncn2COCCO)c(=O)[nH]1 [ACV, reference compound]
HSV-1; in vitro, read-out: Antiviral Activities (EC50, μM) HSV-1
  EC50: 8 µM
HSV-2; in vitro, read-out: Antiviral Activities (EC50, μM) HSV-2
  EC50: 21 µM

## O=C(OCc1ccccc1)c1cc2ccc3c(c2c(-c2ccc4c(c2)OCO4)c1COCc1ccccc1)OCO3 [Compound 4, 9-Benzo[1,3]dioxol-5-yl-8-benzyloxymethyl-naphtho[1,2-d][1,3]-dioxole-7-carboxylic acid benzyl ester]
HBV
  EC50: > 10 µM
HCV; [3]
  inhibition at 10 µM: 71%
HSV-1; [4]
  EC50: > 50 µM
HSV-2; [5]
  EC50: > 50 µM
EBV
  EC50: > 20 µM
HIV
  EC50: > 100 µM
[1]
  IC50: > 100 µM
[2]
  IC50: > 50 µM

## O=C(O)c1cc2ccc3c(c2c(-c2ccc4c(c2)OCO4)c1COCc1ccccc1)OCO3 [Compound 5, 9-Benzo[1,3]dioxol-5-yl-8-benzyloxymethyl-naphtho[1,2-d][1,3]dioxole-7-carboxylic acid]
HBV
  EC50: > 10 µM
HCV; [6]
  EC50: > 10 µM
HSV-1; [4]
  EC50: > 25 µM
HSV-2; [5]
  EC50: > 25 µM
EBV
  EC50: > 20 µM
HIV
  EC50: > 48 µM
[1]
  IC50: 48 µM
[2]
  IC50: > 50 µM
other
  melting point: 219 to 221 °C

## O=C(OCCCOCc1ccccc1)c1cc2ccc3c(c2c(-c2ccc4c(c2)OCO4)c1COCc1ccccc1)OCO3 [Compound 6, 9-Benzo[1,3]dioxol-5-yl-8-benzyloxymethyl-naphtho[1,2-d][1,3]dioxole-7-carboxylic acid 3-benzyloxy-propyl ester]
HBV
  EC50: > 10 µM
HCV; [3]
  inhibition at 10 µM: 55%
HSV-1; [4]
  EC50: > 50 µM
HSV-2; [5]
  EC50: > 50 µM
EBV
  EC50: > 20 µM
HIV
  EC50: > 100 µM
[1]
  IC50: > 100 µM
[2]
  IC50: > 50 µM

## Cc1c(C(=O)OCCCO)cc2ccc3c(c2c1-c1ccc2c(c1)OCO2)OCO3 [Compound 7, 9-Benzo[1,3]dioxol-5-yl-8-methyl-naphtho[1,2-d][1,3]dioxole-7-carboxylic acid 3-hydroxy-propyl ester]
HBV
  EC50: > 23 µM
HCV; [6]
  EC50: > 10 µM
HSV-1; [4]
  EC50: > 25 µM
HSV-2; [5]
  EC50: > 25 µM
EBV
  EC50: > 15 µM
HIV
  EC50: > 10 µM
[1]
  IC50: 10 µM
[2]
  IC50: 46 µM

## CNC(=O)c1cc2ccc3c(c2c(-c2ccc4c(c2)OCO4)c1C(=O)O)OCO3 [Compound 13, 9-Benzo[1,3]dioxol-5-yl-7-methylcarbamoyl-naphtho[1,2-d][1,3]dioxole-8-carboxylic acid]
HBV
  EC50: > 20 µM
HCV; [6]
  EC50: > 10 µM
HSV-1; [4]
  EC50: 12 µM
HSV-2; [5]
  EC50: > 25 µM
EBV
  EC50: > 20 µM
HIV
  EC50: > 26 µM
[1]
  IC50: 26 µM
[2]
  IC50: 29 µM

## CN(C)C(=O)c1cc2ccc3c(c2c(-c2ccc4c(c2)OCO4)c1C(=O)O)OCO3 [Compound 14, 9-Benzo[1,3]dioxol-5-yl-7-dimethylcarbamoyl-naphtho[1,2-d][1,3]dioxole-8-carboxylic acid]
HBV
  EC50: > 10 µM
HCV; [6]
  EC50: > 10 µM
HSV-1; [4]
  EC50: > 50 µM
HSV-2; [5]
  EC50: > 50 µM
EBV
  EC50: > 20 µM
HIV
  EC50: > 70 µM
[1]
  IC50: 70 µM
[2]
  IC50: 76 µM

## COc1ccc(-c2c(C(=O)O)c(C(N)=O)cc3ccc4c(c23)OCO4)cc1OC [Compound 15, 7-Carbamoyl-9-(3,4-dimethoxy-phenyl)-naphtho[1,2-d][1,3]dioxole-8-carboxylic acid]
HBV
  EC50: 0.8 µM
HCV; at 3 μM, Huh-Luc/neo cells, 3 days, read-out: HCV percent of inhibition
  inhibition at 3 µM: 64%
HSV-1; [4]
  EC50: 0.8 µM
HSV-2; [5]
  EC50: > 3 µM
EBV
  EC50: > 20 µM
HIV
  EC50: > 10 µM
[1]
  IC50: 10 µM
[2]
  IC50: 3 µM

## O=C1NCc2c1cc1ccc3c(c1c2-c1ccc2c(c1)OCO2)OCO3 [Compound 18, 10-Benzo[1,3]dioxol-5-yl-8,9-dihydro-1,3-dioxa-8-aza-dicyclopenta[a,g]naphthalen-7-one]
HBV
  EC50: 0.08 µM
HCV; at 1 μM, Huh-Luc/neo cells, 3 days, read-out: HCV percent of inhibition
  inhibition at 1 µM: 55%
HSV-1; [4]
  EC50: 0.29 µM
HSV-2; [5]
  EC50: 0.16 µM
EBV
  EC50: 11 µM
HIV
  EC50: > 4 µM
[1]
  IC50: 4 µM
[2]
  IC50: 4.5 µM

## O=C1c2cc3ccc4c(c3c(-c3ccc5c(c3)OCO5)c2CN1CCCOCc1ccccc1)OCO4 [Compound 20, 10-Benzo[1,3]dioxol-5-yl-8-(3-benzyloxy-propyl)-8,9-dihydro-1,3-dioxa-8-aza-dicyclopenta[a,g]naphthalen-7-one]
HBV
  EC50: > 20 µM
HCV; [3]
  inhibition at 10 µM: 85%
HSV-1; [4]
  EC50: 13 µM
HSV-2; [5]
  EC50: > 20 µM
EBV
  EC50: > 20 µM
HIV
  EC50: > 28 µM
[1]
  IC50: 28 µM
[2]
  IC50: 67 µM

## COC1=NC(=O)c2c1cc1ccc3c(c1c2-c1ccc2c(c1)OCO2)OCO3 [Compound 23, 10-Benzo[1,3]dioxol-5-yl-7-methoxy-1,3-dioxa-8-aza-dicyclopenta[a,g]naphthalen-9-one]
other
  melting point: 306 to 308 °C

## CN1C(=O)c2cc3ccc4c(c3c(-c3ccc5c(c3)OCO5)c2C1=O)OCO4 [Compound 23]
HBV
  EC50: > 10 µM
HCV
  EC50: > 10 µM
HSV-1; [4]
  EC50: > 50 µM
HSV-2; [5]
  EC50: > 50 µM
EBV
  EC50: > 20 µM
HIV
  EC50: > 100 µM
[1]
  IC50: > 100 µM
[2]
  IC50: > 100 µM

## CC(=O)NN1Cc2c(cc3ccc4c(c3c2-c2ccc3c(c2)OCO3)OCO4)C1=O [Compound 26, N-(10-Benzo[1,3]dioxol-5-yl-7-oxo-7,9-dihydro-1,3-dioxa-8-aza-dicyclopenta[a,g]naphthalen-8-yl)-acetamide]
HBV
  EC50: 1 µM
HCV; [6]
  EC50: > 10 µM
HSV-1; [4]
  EC50: 5 µM
HSV-2; [5]
  EC50: 10 µM
EBV
  EC50: 13 µM
HIV
  EC50: > 7 µM
[1]
  IC50: 7 µM
[2]
  IC50: 40 µM

## CC(=O)NN1Cc2cc3ccc4c(c3c(-c3ccc5c(c3)OCO5)c2C1=O)OCO4 [Compound 27, N-(10-Benzo[1,3]dioxol-5-yl-9-oxo-7,9-dihydro-1,3-dioxa-8-aza-dicyclopenta[a,g]naphthalen-8-yl)-acetamide]
HBV
  EC50: > 20 µM
HCV; [3]
  inhibition at 10 µM: 25%
HSV-1; [4]
  EC50: 17 µM
HSV-2; [5]
  EC50: 40 µM
EBV
  EC50: > 20 µM
HIV
  EC50: > 25 µM
[1]
  IC50: 25 µM
[2]
  IC50: 32 µM

## O=c1[nH][nH]c(=O)c2c(-c3ccc4c(c3)OCO4)c3c4c(ccc3cc12)OCO4 [Compound 28, 11-Benzo[1,3]dioxol-5-yl-8,9-dihydro-1,3-dioxa-8,9-diaza-cyclopenta[a]anthracene-7,10-dione]
HBV
  EC50: 0.03 µM
HCV; [3]
  inhibition at 10 µM: 74%
HSV-1; [4]
  EC50: 1.4 µM
HSV-2; [5]
  EC50: 1.4 µM
EBV
  EC50: > 25 µM
[1]
  IC50: 16 µM
[2]
  IC50: 50 µM

## CCOC(=O)c1c(C(=O)OCC)c(-c2ccc3c(c2)OCO3)c2c3c(ccc2c1OC)OCO3 [Compound 35, 9-Benzo[1,3]dioxol-5-yl-6-methoxy-naphtho[1,2-d][1,3]dioxole-7,8-dicarboxylic acid diethyl ester]
HBV
  EC50: > 20 µM
HCV; [3]
  inhibition at 10 µM: 60%
HSV-1; [4]
  EC50: > 50 µM
HSV-2; [5]
  EC50: > 50 µM
EBV
  EC50: > 20 µM
HIV
  EC50: > 24 µM
[1]
  IC50: 24 µM
[2]
  IC50: > 100 µM

## NC(=O)c1cc2ccc3c(c2c(-c2ccc4c(c2)OCO4)c1C(N)=O)OCO3 [Compound 36, 9-Benzo[1,3]dioxol-5-yl-naphtho[1,2-d][1,3]dioxole-7,8-dicarboxylic acid diamide]
HBV
  EC50: > 20 µM
HCV; [6]
  EC50: > 10 µM
HSV-1; [4]
  EC50: > 50 µM
HSV-2; [5]
  EC50: > 50 µM
EBV
  EC50: > 20 µM
HIV
  EC50: > 100 µM
[1]
  IC50: > 100 µM
[2]
  IC50: > 100 µM

## Nc1ccn([C@H]2CC[C@@H](CO)O2)c(=O)n1 [ddC, 2′,3′-Dideoxycytidine, reference compound]
HIV
  EC50: 0.8 µM
[1]
  IC50: 70 µM
[2]
  IC50: 5 µM
